Source: patent publication US8143259B2, “Cold menthol receptor antagonists” (Janssen Pharmaceutica, NV, priority 2008, dated 2012)
Values joined by “and” are separate entries in the source; they are usually repeats but may differ in a detail not shown here. Equal entries are not always repeated.

Target: T1, canine TRPM8 (Canis lupus familiaris, UniProt Q1A7N1)
T1 construct: expressed in transfected cells
Assay: In Vitro Canine TRPM8 Functional Assay (Ca2+ fluorescence, icilin activation)
Format: cell-based
Details: for inhibition at 0.5 µM: HEK293, 0.5 μM compound; for inhibition at 0.2 µM: HEK293, 0.2 μM compound; for IC50: HEK293 cells stably expressing canine TRPM8, icilin activation, Ca2+ fluorescence; for % Inh @ 0.2 μM: 0.2 μM compound; for inhibition at 1 µM: HEK293, 1 μM compound
Protocol: The functional activity of compounds of the formula (I) was determined by measuring changes in intracellular calcium concentration using a Ca^2+-sensitive fluorescent dye. The changes in fluorescent signal were monitored by a fluorescence plate reader, either a FLIPR™ (Molecular Devices) or FDSS (Hamamatsu). Increases in intracellular Ca^2+ concentration were readily detected upon activation with icilin.
HEK293 cells stably expressing canine TRPM8 were routinely grown as monolayers in Dulbecco's minimum essential medium supplemented with 10% FBS, 2 mM L-glutamine, 100 units/mL penicillin, 100 ug/mL streptomycin and 400 μg/mL G418. Cells were maintained in 5% CO2 at 37° C. At 24 hrs prior to assay, cells were seeded in black wall, clear-base poly-D-lysine coated 384-well plates (BD Biosciences, NJ, USA) at a density of 5,000 cells per well in culture medium and grown overnight in 5% CO2 at 37° C. On assay day, growth media was removed and cells were loaded with Calcium 3 Dye (Molecular Devices) for 35 min at 37° C., under 5% CO2 and then for 25 min at room temperature and atmosphere. Subsequently, cells were tested for agonist-induced increases in intracellular Ca^2+ levels using FLIPR™ or FDSS. Cells were challenged with compounds of the formula (I) (at varying concentrations) and intracellular Ca^2+ was measured for 5 min prior to the addition of icilin to all wells to achieve a final concentration that produces approximately an 80% maximal response.
Maximal fluorescence intensity (FI) achieved upon addition of icilin was exported from the FLIPR or FDSS software and further analyzed using GraphPad Prism 3.02 (Graph Pad Software Inc., CA, U.S.A.). Basal FI was subtracted prior to normalizing data to percent of maximal response. Curves were generated using the average of quadruplicate wells for each data point, were analyzed using nonlinear regression of either sigmoidal dose response or sigmoidal dose response (variable slope).

[1] = canine TRPM8 HEK293, icilin, 0.2 µM

T1 sequence (Q1A7N1 1-1104): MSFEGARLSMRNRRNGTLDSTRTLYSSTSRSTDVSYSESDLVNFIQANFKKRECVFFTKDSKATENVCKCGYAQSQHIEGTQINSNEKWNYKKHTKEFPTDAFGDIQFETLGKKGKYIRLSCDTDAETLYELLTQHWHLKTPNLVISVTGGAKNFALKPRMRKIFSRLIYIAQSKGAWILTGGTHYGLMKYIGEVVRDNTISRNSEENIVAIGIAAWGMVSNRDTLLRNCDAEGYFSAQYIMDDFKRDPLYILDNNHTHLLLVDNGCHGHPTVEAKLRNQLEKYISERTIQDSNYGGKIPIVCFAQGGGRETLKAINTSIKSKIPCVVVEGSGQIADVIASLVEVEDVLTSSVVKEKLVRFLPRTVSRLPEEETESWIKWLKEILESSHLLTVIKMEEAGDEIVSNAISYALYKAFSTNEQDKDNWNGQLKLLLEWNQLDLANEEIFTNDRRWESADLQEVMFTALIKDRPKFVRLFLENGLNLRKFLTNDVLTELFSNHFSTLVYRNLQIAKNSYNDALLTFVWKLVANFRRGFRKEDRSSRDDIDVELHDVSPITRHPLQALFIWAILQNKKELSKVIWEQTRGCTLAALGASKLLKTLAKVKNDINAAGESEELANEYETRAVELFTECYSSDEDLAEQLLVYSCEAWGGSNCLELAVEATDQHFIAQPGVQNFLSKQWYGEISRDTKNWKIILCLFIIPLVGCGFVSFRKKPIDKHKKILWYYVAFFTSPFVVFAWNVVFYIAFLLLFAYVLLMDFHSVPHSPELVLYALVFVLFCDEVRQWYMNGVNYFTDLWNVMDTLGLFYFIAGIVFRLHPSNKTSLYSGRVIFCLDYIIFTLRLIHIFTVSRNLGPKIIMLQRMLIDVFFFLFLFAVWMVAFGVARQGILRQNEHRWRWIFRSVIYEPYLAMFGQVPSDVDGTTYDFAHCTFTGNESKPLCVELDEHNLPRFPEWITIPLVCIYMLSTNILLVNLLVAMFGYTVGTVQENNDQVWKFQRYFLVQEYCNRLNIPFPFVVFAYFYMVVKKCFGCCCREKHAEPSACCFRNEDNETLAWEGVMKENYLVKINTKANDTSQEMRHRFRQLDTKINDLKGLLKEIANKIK

Row | SMILES | inhibition at 0.5 µM (canine TRPM8 HEK293, icilin) [%] | IC50 | other results
1 | O=C(NN1CCCC1c1ccccc1Cl)C(Nc1ccccc1)c1ccc(C(F)(F)F)cc1 (stereo not drawn) [Cpd 63, N-[2-(2-Chloro-phenyl)-pyrrolidin-1-yl]-2-phenylamino-2-(4-trifluoromethyl-phenyl)-acetamide] | 36 | – | –
2 | O=C(C(Cc1c(F)cccc1F)c1ccc(C(F)(F)F)cc1)N1CCCC1c1cccnc1 (mixture of isomers) [Cpd 268] | – | – | % Inh @ 0.2 μM [1]: 13% and 15%
3 | CC(C)(C)c1ccc(C(Nc2ccccc2F)C(=O)N2CCCC2c2ccccc2F)cn1 (single isomer, unassigned) [Cpd 356] | – | – | % Inh @ 0.2 μM (canine TRPM8 HEK293, icilin): 57%
4 | O=C(C(Cc1cccc(F)c1F)c1ccc(C(F)(F)F)cc1)N1CCCC1c1ccccc1F (stereo not drawn) [Cpd 253] | – | 65.8 nM | inhibition at 0.2 µM (canine TRPM8 HEK293, icilin): 89%
5 | Cc1ccccc1NC(C(=O)N1CCc2ccccc21)c1ccc(C(F)(F)F)cc1 (stereo not drawn) [Cpd 34, 1-(Indolin-1-yl)-2-(o-tolylamino)-2-(4-(trifluoromethyl)phenyl)-ethanone] | 102 | 161 nM | –
6 | O=C(C(Nc1ccc(F)cc1F)c1ccc(Cl)cc1)N1CCCC1c1ccccc1Cl (stereo not drawn) [Cpd 122] | 96 | 147 nM | –
7 | O=C(C(Nc1ccc(F)cc1)c1ccc(Cl)cc1)N1CCCC1c1ccccc1Cl (stereo not drawn) [Cpd 116] | 98 | 80.3 nM | –
8 | O=C([C@@H](Nc1ccccc1F)c1ccc(C(F)(F)F)cc1)N1CCC[C@H]1c1ccccc1F (single isomer, unassigned) [Cpd 152] | 101 | 61.3 nM | –
9 | O=C(C(Nc1ccccc1F)c1ccc(Br)cc1)N1Cc2ccccc2C1 (stereo not drawn) [Cpd 92] | 98 | 89 nM | –
10 | COC(=O)c1ccc(C2CCCN2C(=O)C(Nc2ccccc2F)c2cc3ccccc3s2)cc1 (stereo not drawn) [Cpd 325] | – | 62 nM | inhibition at 0.2 µM (canine TRPM8 HEK293, icilin): 101%
11 | O=C(C(c1ccc(C(F)(F)F)cc1)N1CCc2ccccc21)N1CCc2ccccc21 (stereo not drawn) [Cpd 42] | 102 | 231 nM | inhibition at 1 µM (canine TRPM8 HEK293, icilin): 29%
12 | O=C(C(Nc1ccccc1F)c1ccc(C(F)(F)F)cc1)N1CCCC1c1ccccc1Cl (single isomer, unassigned) [Cpd 198] | – | 19 nM and 35 nM | % Inh @ 0.2 μM [1]: 101%
13 | O=C(C(CNc1ccccc1)c1ccc(C(F)(F)F)cc1)N1Cc2ccccc2C1 (stereo not drawn) [Cpd 100] | 90 | 290 nM | –
14 | O=C(C(Nc1ccccc1)c1ccc(C(F)(F)F)cc1)N1CCCC1c1ccccc1C(F)(F)F (single isomer, unassigned) [Cpd 30] | 103 | 110 nM | –
15 | CC(C)(C)c1ccc(C(Nc2ccccc2)C(=O)N2CCCC2c2ccccc2Cl)cc1 (single isomer, unassigned) [Cpd 2] | – | 72.6 nM | % Inh @ 1 μM (1 μM compound, canine TRPM8 HEK293, icilin, 1 µM): 100.93%
16 | O=C(C(CNc1ccccc1)c1ccc(C(F)(F)F)cc1)N1CCCC1c1ccccc1F (stereo not drawn) [Cpd 103] | 75 | 182 nM | –
17 | CC(C)(C)c1ccc(C(Nc2ccccc2)C(=O)N2CCCC2c2cccc(Cl)c2)cc1 (single isomer, unassigned) [Cpd 8] | – | 778 nM | inhibition at 1 µM (canine TRPM8 HEK293, icilin): 86.6%
18 | O=C(C(CNc1ccccc1F)c1ccc(C(F)(F)F)cc1)N1Cc2ccccc2C1 (stereo not drawn) [Cpd 106] | 98 | 170 nM | –
19 | O=C(C(Nc1ccccc1F)c1cnc2ccccc2c1)N1CCC[C@H]1c1ccccc1F (single isomer, unassigned) [Cpd 280] | – | 4 nM and 8 nM | % Inh @ 0.2 μM [1]: 101%; inhibition at 0.2 µM (canine TRPM8 HEK293, icilin): 93%
20 | CC(C)(C)c1ccc(C(Nc2ccccc2)C(=O)N2CCC(O)(c3ccccn3)CC2)cc1 (stereo not drawn) [Cpd 4] | – | 291 nM | inhibition at 1 µM (canine TRPM8 HEK293, icilin): 102%
21 | O=C(C(Nc1ccccc1F)c1ccc(Cl)cc1)N1Cc2ccccc2C1 (stereo not drawn) [Cpd 113] | 98 | 61.7 nM | –
22 | O=C(C(Nc1ccccc1F)c1ccc(Br)cc1)N1[C@@H](CO)CC[C@H]1c1ccccc1 (single isomer, unassigned) [Cpd 242] | – | 65.5 nM | –
23 | O=C(C(Nc1ccc(F)cc1)c1ccc(C(F)(F)F)cc1)N1CCCC1c1ccccc1Cl (stereo not drawn) [Cpd 74] | 98 | 73 nM | –
24 | O=C(C(Nc1ccccc1)c1ccc(Cl)cc1)N1CCc2ccccc2C1 (stereo not drawn) [Cpd 88] | 99 | 96 nM | –
25 | O=C(C(Nc1ccc(F)cc1)c1ccc(Cl)cc1)N1CCCC1c1ccccc1 (stereo not drawn) [Cpd 119] | 100 | 69.7 nM | –
26 | CC(C)(C)OC(=O)N1CC=C(c2ccc(C(Nc3ccccc3F)C(=O)N3CCCC3c3ccccc3F)cc2)CC1 (stereo not drawn) [Cpd 299, 4-(4-{1-(2-Fluoro-phenylamino)-2-[2-(2-fluoro-phenyl)-pyrrolidin-1-yl]-2-oxo-ethyl}-phenyl)-3,6-dihydro-2H-pyridine-1-carboxylic acid tert-butyl ester] | – | 65 nM | inhibition at 0.2 µM (canine TRPM8 HEK293, icilin): 99%
27 | CC(C)(C)c1ccc(C(Nc2ccccc2)C(=O)N2CCC[C@H]2CNc2ccccc2)cc1 (single isomer, unassigned) [Cpd 10] | – | 517 nM | inhibition at 1 µM (canine TRPM8 HEK293, icilin): 102%
28 | COc1ccc(NC(C(=O)N2Cc3cccc(F)c3C2)c2ccc(Cl)cc2)cc1 (stereo not drawn) [Cpd 141] | 79 | 188 nM | –
29 | COC(=O)C1CCC(c2ccccc2)N1C(=O)C(Nc1ccccc1F)c1ccc(Br)cc1 (stereo not drawn) [Cpd 196] | – | – | % Inh @ 0.2 μM [1]: 41%

Second part, led by results:

Row | inhibition at 0.5 µM (canine TRPM8 HEK293, icilin) [%] | IC50 | SMILES | other results
30 | – | 12 nM | O=C(C(Nc1ccccc1F)c1ccc(-c2ccccn2)cc1)N1CCC[C@H]1c1ccccc1F (mixture of isomers) [Cpd 289] | inhibition at 0.2 µM (canine TRPM8 HEK293, icilin): 84%
31 | – | 22 nM | COC(=O)c1cccc(C2CCCN2C(=O)C(Nc2ccccc2F)c2ccc(C(F)(F)F)cc2)c1 (mixture of isomers) [Cpd 221] | % Inh @ 0.2 μM (canine TRPM8 HEK293, icilin): 102%
32 | 103 | 23 nM | O=C(C(Nc1ccccc1)c1ccc(Br)cc1)N1CCCC1c1ccccc1 (stereo not drawn) [Cpd 70] | –
33 | – | 29.6 nM | COc1ccccc1C1CCCN1C(=O)C(Nc1cc(F)ccc1F)c1ccc(Cl)cc1 (stereo not drawn) [Cpd 172] | inhibition at 0.2 µM (canine TRPM8 HEK293, icilin): 102%
34 | – | 11 nM | O=C(C(Nc1ccccc1F)c1ccc(N2CCOCC2)cc1)N1CCCC1c1ccccc1F (stereo not drawn) [Cpd 293] | inhibition at 0.2 µM (canine TRPM8 HEK293, icilin): 86%
35 | – | 36.2 nM | O=C([C@@H](CNc1ccccc1)c1ccc(C(F)(F)F)cc1)N1CCC[C@@H]1c1ccccc1 (relative stereo) [Cpd 130, 3-Phenylamino-1-[(2RS*)2-phenyl-pyrrolidin-1-yl]-(2RS*)-2-(4-trifluoromethyl-phenyl)-propan-1-one] | % Inh @ 0.5 μM (0.5 μM compound, canine TRPM8 HEK293, icilin): 101%
36 | 102 | 11 nM | O=C(C(Nc1c(F)cccc1F)c1ccc(Cl)cc1)N1CCCC1c1ccccc1F (stereo not drawn) [Cpd 144] | –
37 | 97 | 15 nM | O=C(C(Nc1ccccc1)c1ccc(Cl)cc1)N1CCCC1c1ccccc1 (stereo not drawn) [Cpd 86] | –
38 | 98 | 20 nM | O=C(C(Nc1ccccc1F)c1ccc(Br)cc1)N1CCCC1c1ccccc1Cl (stereo not drawn) [Cpd 89] | –
39 | – | 40 nM | O=C(O)c1cccc(C2CCCN2C(=O)C(Nc2ccccc2F)c2ccc(C(F)(F)F)cc2)c1 (mixture of isomers) [Cpd 223] | % Inh @ 0.2 μM (canine TRPM8 HEK293, icilin): 97%
40 | – | 26 nM | CC(=O)Nc1cccc(C2CCCN2C(=O)C(Nc2ccccc2F)c2ccc(C(F)(F)F)cc2)c1 (stereo not drawn) [Cpd 316] | inhibition at 0.2 µM (canine TRPM8 HEK293, icilin): 102%
41 | – | 46 nM | O=C(C(Nc1c(F)cccc1F)c1ccc(Cl)cc1)N1CCCc2ccccc21 (stereo not drawn) [Cpd 366] | inhibition at 0.2 µM (canine TRPM8 HEK293, icilin): 98%
42 | – | 5 nM | Cc1nc2ccc(C(Nc3ccccc3F)C(=O)N3CCCC3c3ccccc3F)cc2s1 (single isomer, unassigned) [Cpd 340] | inhibition at 0.2 µM (canine TRPM8 HEK293, icilin): 101%
